According to ChEMBL document CHEMBL1136155, “Search compounds with antimicrobial activity by applying molecular topology to selected quinolones” (Bioorg Med Chem Lett, 2003):
The source made the active and inactive calls. No cut-off for these calls is given here.

Tests used:
Enterococcus faecalis [1] = assay: Antimicrobial activity against Enterococcus faecalis;IA is Inactive; assay type: functional, organism-based
Pseudomonas aeruginosa = assay: Antimicrobial activity against Pseudomonas aeruginosa 108;IA is Inactive; assay type: functional, organism-based
Proteus mirabilis [2] = assay: The compound has antimicrobial activity against Proteus mirabilis; Active; assay type: functional, organism-based
Staphylococcus aureus [3] = assay: Antimicrobial activity against Staphylococcus aureus;IA is Inactive; assay type: functional, organism-based
Escherichia coli = assay: Antimicrobial activity against Escherichia coli;IA is Inactive; assay type: functional, organism-based
Proteus mirabilis [4] = assay: Antimicrobial activity against Proteus mirabilis;IA is Inactive; assay type: functional, organism-based
Klebsiella aerogenes = assay: Activity against Enterobacter aerogenes; assay type: functional
in vivo = conditions: eutheria
Enterococcus faecalis [5] = assay: The compound has antimicrobial activity against Enterococcus faecalis; Active; assay type: functional, organism-based
Staphylococcus aureus [6] = assay: The compound has antimicrobial activity against Staphylococcus aureus; Active; assay type: functional, organism-based

Row | Structure (SMILES) | CMI (Klebsiella aerogenes) [mg/L] | bioavailability (in vivo) [%] | also measured
1 | CC1=CC(=C(c2cc(C)c(O)c(CN(CC(=O)O)CC(=O)O)c2)c2ccccc2S(=O)(=O)O)C=C(CN(CC(=O)O)CC(=O)O)C1=O |  |  | Activity (Enterococcus faecalis [1]): inactive; Activity (Pseudomonas aeruginosa): inactive; Activity (Proteus mirabilis [2]): Active; Activity (Staphylococcus aureus [3]): inactive; Activity (Escherichia coli): inactive
2 | Nc1ccc(C(=O)Nc2ccc3c(O)c(/N=N/c4ccc(C(=O)Nc5ccc(/N=N/c6ccc7cc(S(=O)(=O)O)cc(S(=O)(=O)O)c7c6)c(O)c5)cc4)c(S(=O)(=O)O)cc3c2)cc1 |  |  | Activity (Enterococcus faecalis [1]): inactive; Activity (Pseudomonas aeruginosa): inactive; Activity (Proteus mirabilis [4]): inactive; Activity (Staphylococcus aureus [3]): inactive; Activity (Escherichia coli): inactive
3 | OCC(O)C(OC1CO1)OC1CO1 (stereo not given) |  |  | Activity (Enterococcus faecalis [1]): inactive; Activity (Pseudomonas aeruginosa): inactive; Activity (Proteus mirabilis [4]): inactive; Activity (Staphylococcus aureus [3]): inactive; Activity (Escherichia coli): inactive
4 | CNn1cc(C(=O)O)c(=O)c2cc(F)c(N3CCN(C)CC3)cc21 [AMIFLOXACIN] | 0.11 |  | 
5 | O=C(O)c1cn(C2CC2)c2cc(N3CCNCC3)c(F)cc2c1=O [CIPROFLOXACIN] | 0.03 |  | 
6 | CN1CCN(c2cc3c(cc2F)c(=O)c(C(=O)O)cn3-c2ccc(F)cc2)CC1 [DIFLOXACIN] | 0.19 |  | 
7 | CCn1cc(C(=O)O)c(=O)c2cc(F)c(N3CCNCC3)nc21 [ENOXACIN] | 0.16 | 87.4 | 
8 | CCn1cc(C(=O)O)c(=O)c2cc(F)c(N3CCNC(C)C3)c(F)c21 (stereo not given) [LOMEFLOXACIN] | 0.16 | 98 | 
9 | CCn1cc(C(=O)O)c(=O)c2ccc(C)nc21 [NALIDIXIC ACID] | 3 | 60 | Activity (Enterococcus faecalis [5]): Active; Activity (Pseudomonas aeruginosa): inactive; Activity (Proteus mirabilis [2]): Active; Activity (Staphylococcus aureus [6]): Active; Activity (Escherichia coli): inactive
10 | CCn1cc(C(=O)O)c(=O)c2cc(F)c(N3CCNCC3)cc21 [NORFLOXACIN] | 0.1 | 63 | 
11 | CC1COc2c(N3CCN(C)CC3)c(F)cc3c(=O)c(C(=O)O)cn1c23 (stereo not given) [OFLOXACIN] | 0.12 | 94.4 | 
12 | CCn1cc(C(=O)O)c(=O)c2cc3c(cc21)OCO3 [OXOLINIC ACID] | 0.5 |  | 
13 | CCn1cc(C(=O)O)c(=O)c2cc(F)c(N3CCN(C)CC3)cc21 [PEFLOXACIN] | 0.12 | 91.2 | 
14 | CCn1cc(C(=O)O)c(=O)c2cnc(N3CCNCC3)nc21 [PIPEMIDIC ACID] | 2 |  | 
15 | CC1CN(c2cc3c(cc2F)c(=O)c(C(=O)O)cn3-c2ccc(F)cc2F)CCN1 (stereo not given) [TEMAFLOXACIN] | 0.16 | 90 | 
16 | NC1CCN(c2nc3c(cc2F)c(=O)c(C(=O)O)cn3-c2ccccc2F)C1 (stereo not given) [TUSOFLOXACINE] | 0.05 |  | 
